Patent US20220265549A1, “PHARMACEUTICAL COMPOSITION COMPRISING ENSIFENTRINE” (VERONA PHARMA PLC, priority 2019, published 2022)

Tests used:
[1] = Particle size distribution of materials (laser diffraction); format: physicochemical; conditions: volume particle size distribution
Description: Particle sizes are described herein by reference to the Dv50 value, which is the median particle size for a volume distribution. Thus, half the volume of the particles have diameters of less than the Dv50 value and half the volume of the particles have diameters of greater than the Dv50 value. This is a well-known manner in which to describe particle size distributions. The parameters of Dv10 and Dv90 may also be used to characterise a particle size distribution of a sample. 10% of the volume of particles have a diameter of less than the Dv10 value. 90% of the volume of the particles have a diameter of less than the Dv90 value.
The technique used to measure the Dv50 (and Dv10 and Dv90) values as stated herein is typically laser diffraction. For instance, the coarse lactose particles typically have a particle size distribution with a Dv50 value of from 40 μm to 80 μm as measured by laser diffraction and the fine lactose particles have a particle size distribution with a Dv50 value of from 5 μm to 10 μm as measured by laser diffraction.
The particle size distribution of low aqueous solubility materials, for instance the ensifentrine particles, may be as measured by laser diffraction using a wet powder dispersion system. For instance, the particle size distribution can be measured by laser diffraction using a Malvern Spraytec in conjunction with a wet dispersion cell. Typically, the instrument parameters for the Malvern Spraytec are as follows: • particle—standard opaque particle; • refractive index Particle—1.50; • refractive index (imaginary)—0.50; • density of particle—1.00; • refractive index of dispersant—1.33; • controller unit—1000 RPM; • measurement type—timed; • initial sampling time—30 s; • obscuration—20%-30%; • dispersant—1% Polysorbate 20 in deionised water.
The particle size distribution of materials soluble in water, for instance lactose particles, may be as measured by laser diffraction using a dry powder dispersion system. For instance, the particle size distribution can be measured by laser diffraction using a Malvern or Sympatec dry dispersion cell. […]

patients with COPD [2] = experiment: Phase II clinical study, single dose part (FEV1); format: in vivo, human
Protocol: (§1) A 2-part, 37 patient, Phase II single and repeat dose clinical study with ensifentrine in patients with COPD was completed using DPI formulations 12, 13 and 14 (Table 6).
Ensifentrine doses of 0.15, 0.5, 1.5, and 3 mg provided dose-dependent improvements from baseline in peak Forced Expiratory Volume in one second (FEV1) (over 4 hours) of up to 333 mL compared with placebo (p<0.01 for 1.5 mg and 3 mg doses).

patients with COPD [3] = experiment: Phase II clinical study, repeat dose crossover part (FEV1); format: in vivo, human; conditions: for Improvement from baseline in peak FEV1 (over 4 hours) on Day 7 compared with placebo: DPI; for Improvement in morning trough FEV1 on Day 7 compared with placebo: twice daily over 7 days, dose not identified
Protocol: as §1
The second part of the study was a complete block crossover study using the same patients that were dosed in the first part of the study. Ensifentrine doses of 0.15 mg to 3 mg dosed twice daily over 7 days also provided dose-dependent, highly statistically significant and clinically meaningful improvements from baseline in peak FEV1 (over 4 hours) on Day 7 of 102, 175, 180, and 260 mL, respectively, compared with placebo (p≤0.0001 for all dose groups). The improvement in FEV1 was sustained over the 12 hour dosing interval as shown by clinically meaningful and statistically significant improvements in average FEV1 over 12 hours of up to 147 mL (p<0.05 for all dose groups) and in morning trough FEV1 on Day 7 of 98, 87, and 97 mL, respectively, compared with placebo (p≤0.001 for each dose).

Dv10 (μm) [1]: 0.5 μm
Dv50 (μm) [1]: 1.3 μm
Dv90 (μm) [1]: 3.6 μm
Structure (SMILES): COc1cc2c(cc1OC)-c1c/c(=N\c3c(C)cc(C)cc3C)n(CCNC(N)=O)c(=O)n1CC2 [Ensifentrine, 9,10-dimethoxy-2-(2,4,6-trimethylphenylimino)-3-(N-carbamoyl-2-aminoethyl)-3,4,6,7-tetrahydro-2H-pyrimido[6,1-a]isoquinolin-4-one]
Improvement from baseline in peak FEV1 (over 4 hours) compared with placebo (patients with COPD [2]; single doses of 0.15, 0.5, 1.5 and 3 mg by DPI, maximum across doses): up to 333 mL
Bronchodilatory effect (patients with COPD [2]; single doses up to 3 mg by DPI, over 12 hours, COPD patients): rapid, dose-dependent, and statistically significant bronchodilatory effect
Improvement in average FEV1 over 12 hours (patients with COPD [3]; 0.15 mg to 3 mg twice daily over 7 days, maximum across doses): up to 147 mL
Improvement from baseline in peak FEV1 (over 4 hours) on Day 7 compared with placebo (patients with COPD [3]; 0.15 mg twice daily over 7 days): 102 mL
Improvement from baseline in peak FEV1 (over 4 hours) on Day 7 compared with placebo (patients with COPD [3]; 0.5 mg twice daily over 7 days): 175 mL
Improvement from baseline in peak FEV1 (over 4 hours) on Day 7 compared with placebo (patients with COPD [3]; 1.5 mg twice daily over 7 days): 180 mL
Improvement from baseline in peak FEV1 (over 4 hours) on Day 7 compared with placebo (patients with COPD [3]; 3 mg twice daily over 7 days): 260 mL
Improvement in morning trough FEV1 on Day 7 compared with placebo (patients with COPD [3]; first of three listed values): 98 mL
Improvement in morning trough FEV1 on Day 7 compared with placebo (patients with COPD [3]; second of three listed values): 87 mL
Improvement in morning trough FEV1 on Day 7 compared with placebo (patients with COPD [3]; third of three listed values): 97 mL
